Columns and labels:
red blood cells = assay: Hemolysis activity with red blood cell suspension, absorbance at 588 nm; format: cell-based; conditions: for hemolysis activity of compound (1): 0.6 mM compound (1), more suppressed at higher cyclodextrin concentration, FIG. 1
Protocol: To 10 mM isotonic phosphate buffer solution (pH 6.0, 2 ml) containing SBE7-β-CD or hydroxypropyl-β-cyclodextrin (product of Nihon Shokuhin Kako; hereinafter may be abbreviated as HP-β-CD; molecular weight 1413; substitution ratio: 4.8/21 (about 23%)) at a different concentration and 0.6 mM compound (1) (concentration that permits complete hemolysis) was added a suspension (0.2 ml) of red blood cells suspension (5%). The mixture was maintained for 30 minutes at 37° C. After centrifugal separation (1000× g, 5 min), oxyhemoglobin and methohemoglobin contained in the supernatant were determined based on the absorbance at 588 nm, to thereby investigate the hemolysis activity of compound (1).

[1] = Solubility of compound (1) in aqueous SBE7-β-CD solution or water, HPLC of filtered supernatant; format: physicochemical
Protocol: To an aqueous solution of a β-cyclodextrin sulfobutyl ether sodium salt (product of CyDex; hereinafter may be abbreviated as SBE7-β-CD; molecular weight 2162.01; substitution ratio: 7/21 (about 33%)) (26, 40, or 72 mM; 2.5 ml) was added an excessive amount of 3-[2-[4-(3-chloro-2-methylphenyl)-1-piperadinyl]ethyl]-5,6-dimethoxy-1-(4-imidazolylmethyl)-1H-indazole,.2HCl.3.5H2O(hereinafter may be abbreviated as compound (1); molecular weight: 631.0) (400 mg). The mixture was allowed to stand for 7 days in a 25° C. water bath. During the standing period, the mixture was sonicated once a day for 15 minutes, followed by stirring for 2 minutes. On the first, fifth, and seventh days, pH of the mixture was adjusted to 4.0 by addition of adequate amount of HCl. After pH was adjusted on the seventh day, the amount of the entirety of the mixture was adjusted to 5 ml (to thereby achieve a SBE7-β-CD concentration of […]). Six days later, the mixture was subjected to centrifugal separation, to thereby collect a supernatant. […] Similarly, the solubility of the piperazine derivative (I) for water was also determined by HPLC.
(Conditions for High Performance Liquid Chromatography (HPLC))
Mobile phase: 50 mM phosphate buffer solution (pH 5.5)/acetonitrile (1:1)
Column temperature: 40° C.

COc1cc2c(CCN3CCN(c4cccc(Cl)c4C)CC3)nn(Cc3c[nH]cn3)c2cc1OC.Cl.Cl [compound (1), 3-[2-[4-(3-chloro-2-methylphenyl)-1-piperadinyl]ethyl]-5,6-dimethoxy-1-(4-imidazolylmethyl)-1H-indazole,.2HCl.3.5H2O]
concentration that permits complete hemolysis (red blood cells; 10 mM isotonic phosphate buffer pH 6.0, 30 minutes at 37° C.): 600 µM
hemolysis activity of compound (1) (red blood cells; complex formed by addition of HP-β-CD): suppressed
hemolysis activity of compound (1) (red blood cells; complex formed by addition of SBE7-β-CD): suppressed
Concentration of compound (1) in supernatant ([1]; Compound (1) alone, solubility for water): 14600 µM
Concentration of compound (1) in supernatant ([1]; SBE7-β-CD 13 mM, 25° C., pH 4.0): 19000 µM
Concentration of compound (1) in supernatant ([1]; SBE7-β-CD 20 mM, 25° C., pH 4.0): 25600 µM
Concentration of compound (1) in supernatant ([1]; SBE7-β-CD 36 mM, 25° C., pH 4.0): 56700 µM

Source: US6596706B1, “Piperazine-cyclodextrin complexes” (Daiichi Pharmaceutical Co., Ltd., priority 1997, dated 2003)
